{"source": "patent US20160237400A1", "about": "“ISOLATION OF NON-EMBRYONIC STEM CELLS AND USES THEREOF” (The Jackson Laboratory, priority 2013, published 2016)", "key": {"[1]": {"test_system": "paclitaxel resistant (G3) IC#1 CSC library", "assay": "plate (colony formation) assay, paclitaxel-resistant CSC library", "assay_type": "cell-based, human", "method": "(§1) Survivors were re-plated en masse, and cycled through two additional rounds of 100 nM paclitaxel for 3 hours with recovery in between for 10 days, after which visible colonies were selected and individually expanded as pedigrees (FIG. 28B). To determine relationships between these ad hoc, paclitaxel-resistant pedigrees from the library and the 92 randomly sampled pedigrees from the treatment-naïve IC#1 library assessed for CSC heterogeneity, their CNV profiles were mapped onto the heterogeneity map established for IC#1.\nThe GSEA data in the table above highlighted the PGR pathway. Analysis of gene expression in the IC#1 CSC library treated with successive rounds of paclitaxel indeed confirmed a progressive increase in PGR expression (FIG. 31). […] The fate of 25,000 colony forming units from the IC#1 CSC library and the paclitaxel resistant library (G3) following exposure to combinations of paclitaxel, RU486, and cisplatin were directly compared. RU486 is a PGR antagonist that has previously been tested and failed as a single agent in clinical trials for recurrent ovarian cancer.\nNext, the long-term impact of these drug combinations on the paclitaxel-resistant G3 pool over successive rounds of exposure was investigated.\n(§2) High-grade ovarian cancer was surgically resected, and tumor tissue was collected into cold F12 media (Gibco, USA) with 5% fetal bovine serum (HyClone, USA) and then minced by sterile scalpel into 0.2-0.5 mm^3 sizes to a viscous and homogeneous appearance. The minced tissue was digested in 2 mg/mL collagenase type IV (Gibco, USA) at 37° C. for 30-60 min with agitation. Dissociated cells were passed through a 70 μm Nylon mesh (Falcon, USA) to remove aggregates and then were washed four times in cold F12 media, and then seeded onto a feeder layer of lethally irradiated 3T3-J2 cells in c-FAD media modified to SCM-68 media by the addition of 125 ng/mL R-spondin1 (R&D systems, USA), 1 μM Jagged-1 (AnaSpec Inc., USA), 100 ng/ml human Noggin (Peprotech, USA), 2.5 μM Rock-inhibitor (Calbiochem, USA), 2 μM SB431542 (Cayman chemical, USA), and 10 mM nicotinamide (Sigma-Aldrich, USA).\nCells were cultured at 37° C. in a 7.5% CO2 incubator. The culture media was replaced every two days. Colonies were digested by 0.25% trypsin-EDTA solution (Gibco, USA) for 5-8 min and passaged every 7 to 10 days. Colonies were trypsinized by TrypLE Express solution (Gibco, USA) for 8-15 min at 37° C. and cell suspensions were passed through 30 μm filters (Miltenyi Biotec, Germany). Approximately 20,000 epithelial cells were seeded to each well of 6-well plate. Cloning cylinder (Pyrex, USA) and high vacuum grease (Dow Corning, USA) were used to select single colonies for pedigrees. Gene expression analyses were performed on cells derived from passage 2-8 (P2-P8) cultures."}, "[2]": {"test_system": "CSCs from the IC#1 library (G0), high-grade ovarian cancer", "assay": "plate (colony formation) assay, rhodamine B stain, treatment-naive CSC library", "assay_type": "cell-based, human", "method": "To probe for paclitaxel resistance in the IC#1 library of CSCs, a paclitaxel dose-response curved were established by challenging 10,000 CSCs with a spectrum of paclitaxel concentrations. […] The plates were then stained with rhodamine B. Rhodamine B-stained 100 nM paclitaxel treatment plate yielded less than 0.1% of the control colonies.\nas §1, §2\nCells were cultured at 37° C. in a 7.5% CO2 incubator. The culture media was replaced every two days. Colonies were digested by 0.25% trypsin-EDTA solution (Gibco, USA) for 5-8 min and passaged every 7 to 10 days. […]"}, "[3]": {"test_system": "N11 CSC pedigree (IC#1 library)", "assay": "paclitaxel challenge of sampled CSC pedigree N11", "assay_type": "cell-based, human"}, "[4]": {"test_system": "CSC pedigrees sampled from Groups B, C, D, E, F and G of the IC#1 library", "assay": "paclitaxel challenge of sampled CSC pedigrees of Groups B to G", "assay_type": "cell-based, human"}, "[5]": {"test_system": "CSCs from the IC#2 library", "assay": "paclitaxel challenge of IC#2 CSCs", "assay_type": "cell-based, human", "conditions": "parameters identical to IC#1 (100 nM, 3 hours, three rounds); 37 individual CSCs"}, "[6]": {"test_system": "CD166hi CSC clones from the IC#1 library", "assay": "drug challenge of CD166hi sorted CSC clones", "assay_type": "cell-based, human", "conditions": "clones flow sorted for CD166 from the IC#1 library, individually tested"}, "[7]": {"test_system": "stem cell colonies (DASCp63/Krt5) from Krt6-DTR and WT mouse lung", "assay_type": "cell-based"}, "[8]": {"test_system": "Krt5+ / Krt6+ cells in lung of Krt6-DTR mice", "conditions": "in vivo"}}, "note": "Entries after “also recorded” stand apart in the source; their conditions may differ.", "data": [{"molecule": "CC(C)C[C@H](NC(=O)[C@H](Cc1ccccc1)NC(=O)c1cnccn1)B(O)O", "note": "[bortezomib]", "values": [{"measurement": "effect towards resistant CSCs of IC#1 when used together with paclitaxel", "setting": "[1]", "value": "synthetic lethality"}]}, {"molecule": "CC(C)C[C@H](NC(=O)[C@H](CCc1ccccc1)NC(=O)CN1CCOCC1)C(=O)N[C@@H](Cc1ccccc1)C(=O)N[C@@H](CC(C)C)C(=O)[C@@]1(C)CO1", "note": "[carfilzomib]", "values": [{"measurement": "effect towards resistant CSCs of IC#1 when used together with paclitaxel", "setting": "[1]", "value": "synthetic lethality"}]}, {"molecule": "CC(=O)O[C@H]1C(=O)[C@@]2(C)[C@H]([C@H](OC(=O)c3ccccc3)[C@]3(O)C[C@H](OC(=O)[C@H](O)[C@@H](NC(=O)c4ccccc4)c4ccccc4)C(C)=C1C3(C)C)[C@]1(OC(C)=O)CO[C@@H]1C[C@@H]2O", "note": "[paclitaxel]", "values": [{"measurement": "colonies relative to control colonies", "setting": "[2]; 100 nM paclitaxel for 3 hours, about 10,000 colony-forming units, rhodamine B stain", "value": "less than 0.1%"}, {"measurement": "activity against the treatment naive IC#1 G0 library", "setting": "[2]; 25,000 colony-forming units, single agent", "value": "strong activity"}, {"measurement": "resistance to initial challenge", "setting": "[2]; single dose of 100 nM paclitaxel, IC#1 library", "value": "little or no resistance"}, {"measurement": "survival (colonies) of the paclitaxel-resistant G3 pool", "setting": "[1]; 25,000 colony-forming units, G4 challenge", "value": 15, "unit": "%"}, {"measurement": "resistance over four additional successive rounds of exposure, measured by colony formation", "setting": "[1]; Ru486 10 μM, paclitaxel 100 nM, cisplatin 20 μM", "value": "progressive resistance"}, {"measurement": "cells survived initial challenge", "setting": "[3]; initial challenge, single dose of 100 nM paclitaxel", "value": 17.5, "unit": "%"}, {"measurement": "resistance after two additional challenges", "setting": "[3]; third round of paclitaxel", "value": "~100", "unit": "%"}, {"measurement": "resistance at the third round", "setting": "[4]; CSCs within group B, third round of paclitaxel", "value": "less than 35%"}, {"measurement": "resistance to initial challenge", "setting": "[4]; single dose of 100 nM paclitaxel, representative CSCs from the other six clusters", "value": "little or no resistance"}, {"measurement": "survival of triple paclitaxel challenge", "setting": "[5]", "value": "none of the 37 individual CSCs from the IC#2 library survived"}, {"measurement": "CD166hi clones tested with intrinsic resistance", "setting": "[6]", "value": 21, "unit": "%"}]}, {"molecule": "diphtheria toxin", "values": [{"measurement": "fate of Krt6-DTR stem cell colonies on diphtheria toxin", "setting": "[7]", "value": "die within four days; also recorded: dies after 4 days"}, {"measurement": "fate of control (WT) colonies on diphtheria toxin", "setting": "[7]", "value": "continued to proliferate and expand in size; also recorded: looks normal"}, {"measurement": "sensitivity of Krt6 negative endothelial cells from Krt6-DTR mice", "setting": "[7]", "value": "insensitive"}, {"measurement": "reduction of clonogenic cell number versus WT mouse with DT (clonogenic assay)", "setting": "[8]", "value": "70-80%"}, {"measurement": "loss of Krt5+ cells compared to wild type controls", "setting": "[8]; mouse", "value": 90, "unit": "%"}, {"measurement": "loss of Krt6+ cells compared to wild type controls", "setting": "[8]; mouse", "value": "greater than 99%"}, {"measurement": "reduction of Krt5+ cell number versus WT (IF staining)", "setting": "[8]; mouse, ip", "value": 70, "unit": "%"}, {"measurement": "reduction of Krt6+ cell number versus WT (IF staining)", "setting": "[8]; mouse, ip", "value": "~90", "unit": "%"}]}]}
